How the values were obtained:
[1] = tested on: A459 cells transfected with siRNA targeting RPL11 (siRPL11); test: global protein synthesis in cells with insufficient global protein synthesis (siRPL11); type: cell-based; settings: FIGS. 4A-4D; for concentrations that increase protein synthesis, fold lower as compared to erythromycin: siRPL11 cells
Method: FIGS. 2A-2D provide data and a schematic of an example of a screening method to discover and/or identify translational activators. In this example, cells with decreased global protein synthesis via small interfering RNA (siRNA) knockdown of an RP are cultured within a multi-well format. Each well of cultured cells is contacted with a compound and then examined for global protein synthesis. Compounds that increased global protein synthesis were considered a putative translational activator for further examination.
To begin, cells are prepared (FIG. 2B). In some embodiments, cells having decreased global protein translation are cultured. It should be understood that any cells can be assessed and it is not required that the cells have decreased global protein translation, but cells with decreased global protein translation may improve identification of translational activators. In some embodiments, the cells are known to have a wild-type p53 sequence, which can reduce cofounding factors. Culturing of cells can be in plates, tubes, flasks, and/or any other appropriate container. High throughput methods can use multi-well plates (e.g., 96-well, 384-well, 1536-well, etc.) or any other means for dividing a cell culture into multiple populations.
In some embodiments, the cells that are cultured are manipulated to decrease global translation. In some embodiments, cells are manipulated by reducing expression of or inhibiting functionality of a ribosomal subunit. Examples of ribosomal subunits that can be targeted include (but are not limited to) RPL5, RPL11, RPS6, and RPS19, each of which are involved in various ribosomopathies. One method to reduce ribosomal subunit expression is knockdown via antisense and/or RNA interference (RNAi) technology. […] The example method within FIG. 2B utilizes reverse transfection in which double-stranded siRNA complexes are preformed and transfected into the cells, which are then cultured.
Upon preparing the cells, the cells are then treated with compounds (FIG. 2C). In some embodiments, cultured cells are contacted with a compound to assess their effect on global protein translation. […] If using a pooling strategy, hits can be further assessed to delineate which compound (or combination of compounds) yield the beneficial effect. Compounds can be assessed at a single concentration, or multiple concentrations. […] For high-throughput assessments, multiple cell cultures (e.g., multiple wells) can be assessed concurrently, each cell culture provided with the same conditions except for the compound (or concentration thereof) utilized to contact the cells of the culture.
After a period of incubating the cell culture with a compound, global protein production can be assessed (FIG. 2D). Any readout for measuring protein synthesis can be utilized. […]

[2] = tested on: A459 cells transfected with a control siRNA (siCTRL); test: global protein synthesis in control cells (siCTRL); type: cell-based; settings: siCTRL cells with normal global synthesis; FIGS. 4A-4D
Method: FIGS. 2A-2D provide data and a schematic of an example of a screening method to discover and/or identify translational activators. In this example, cells with decreased global protein synthesis via small interfering RNA (siRNA) knockdown of an RP are cultured within a multi-well format. Each well of cultured cells is contacted with a compound and then examined for global protein synthesis. Compounds that increased global protein synthesis were considered a putative translational activator for further examination. To begin, cells are prepared (FIG. 2B). In some embodiments, cells having decreased global protein translation are cultured. It should be understood that any cells can be assessed and it is not required that the cells have decreased global protein translation, but cells with decreased global protein translation may improve identification of translational activators. […] If using a pooling strategy, hits can be further assessed to delineate which compound (or combination of compounds) yield the beneficial effect. Compounds can be assessed at a single concentration, or multiple concentrations. […] For high-throughput assessments, multiple cell cultures (e.g., multiple wells) can be assessed concurrently, each cell culture provided with the same conditions except for the compound (or concentration thereof) utilized to contact the cells of the culture. […]

[3] = cellular toxicity, relative total cell count against concentration; settings: at concentrations that improve protein synthesis; FIG. 5
Text: Specifically, FIG. 5 illustrates relative total cell count is plotted against the concentration provided.

Structure (SMILES) | concentrations that increase protein synthesis, fold lower as compared to erythromycin [1] [fold] | increase of protein synthesis in control cells [2] | ability to increase protein synthesis ([1]; siRPL11 cells having insufficient global protein synthesis) | cellular toxicity (relative total cell count) [3]
CC[C@H]1OC(=O)[C@H](C)[C@@H](O[C@H]2C[C@@](C)(OC)[C@@H](O)[C@H](C)O2)[C@H](C)[C@@H](O[C@@H]2O[C@H](C)C[C@H](N(C)C)[C@H]2O)[C@](C)(O)C[C@@H](C)CN(C)[C@H](C)[C@@H](O)[C@]1(C)O [azithromycin] | 10 | increased protein synthesis in control cells |  | 
CC[C@H]1OC(=O)[C@H](C)[C@@H](O[C@H]2C[C@@](C)(OC)[C@@H](O)[C@H](C)O2)[C@H](C)[C@@H](O[C@@H]2O[C@H](C)C[C@H](N(C)C)[C@H]2O)[C@](C)(O)C[C@@H](C)C(=O)[C@H](C)[C@@H](O)[C@]1(C)O [erythromycin] |  |  | increased protein synthesis at high concentrations | 
CC[C@H]1OC(=O)[C@@](C)(F)C(=O)[C@H](C)[C@@H](O[C@@H]2O[C@H](C)C[C@H](N(C)C)[C@H]2O)[C@](C)(OC)C[C@@H](C)C(=O)[C@H](C)[C@H]2N(CCCCn3cc(-c4cccc(N)c4)nn3)C(=O)O[C@]12C [solithromycin] | 10 |  |  | little to no toxicity
CC[C@H]1OC(=O)[C@H](C)C(=O)[C@H](C)[C@@H](O[C@@H]2O[C@H](C)C[C@H](N(C)C)[C@H]2O)[C@](C)(OC)C[C@@H](C)C(=O)[C@H](C)[C@H]2N(CCCCn3cnc(-c4cccnc4)c3)C(=O)O[C@]12C [telithromycin] | 10 |  |  | 
